Several values for one entry are separate records, joined by “and”; a condition that tells them apart may be missing. Equal values may be shown once.
Tested on: 993429-296-R-J1-PDC complex spheroid growth, percent test/control
Experiment: Anticancer human tumor 993429-296-R-J1-PDC patient-derived uterine sarcoma cell line growth inhibition [Asc]
Conditions: for viability, T/C: stronger effect = lower value; active means viability on the fitted dose curve at most 10% of control; inactive means the rest
Summary of the method: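 Complex solid-tumor spheroids incorporating human endothelial and mesenchymal stem cells received single agents or combinations over half-log dilution ranges anchored to clinical Cmax.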

[1] = curve of first compound, second compound 0.1 µM
[2] = curve of first compound, second compound 0.316 µM
[3] = curve of first compound, second compound 1 µM
[4] = curve of first compound, second compound 3.16 µM
[5] = curve of first compound, second compound 10 µM
[6] = second compound 0.1 µM, first compound 0.0316 µM
[7] = second compound 0.1 µM, first compound 0.1 µM
[8] = second compound 0.1 µM, first compound 0.316 µM
[9] = second compound 0.1 µM, first compound 1 µM
[10] = second compound 0.316 µM, first compound 0.0316 µM
[11] = second compound 0.316 µM, first compound 0.1 µM
[12] = second compound 0.316 µM, first compound 0.316 µM
[13] = second compound 0.316 µM, first compound 1 µM
[14] = second compound 1 µM, first compound 0.0316 µM
[15] = second compound 1 µM, first compound 0.1 µM
[16] = second compound 1 µM, first compound 0.316 µM
[17] = second compound 1 µM, first compound 1 µM
[18] = second compound 3.16 µM, first compound 0.0316 µM
[19] = second compound 3.16 µM, first compound 0.1 µM
[20] = second compound 3.16 µM, first compound 0.316 µM
[21] = second compound 3.16 µM, first compound 1 µM
[22] = second compound 10 µM, first compound 0.0316 µM
[23] = second compound 10 µM, first compound 0.1 µM
[24] = second compound 10 µM, first compound 0.316 µM
[25] = second compound 10 µM, first compound 1 µM
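Further: spheroids exposed to compounds for seven days.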

CNC(C)C(=O)NC1CN(S(=O)(=O)c2cccc(S(=O)(=O)N3CCC4CCC(C(=O)NC(c5ccccc5)c5ccccc5)N4C(=O)C(NC(=O)C(C)NC)C3)c2)CCC2CCC(C(=O)NC(c3ccccc3)c3ccccc3)N2C1=O (stereo not drawn) + Cc1c(S(C)(=O)=O)c(-c2cc(F)cc(N3CCN(c4ccc(NS(=O)(=O)c5ccc(NC(CCN6CCC(C(=O)OCCCP(=O)(O)O)CC6)CSc6ccccc6)c(S(=O)(=O)C(F)(F)F)c5)cc4)CC3)c2)c(-c2ccc(Cl)cc2)n1C(C)C
3.25 nM: IC50 [4]
901 nM: IC50 [5]
542 nM: IC50 [1]
< 3.16 nM: IC50 [3]
100 nM: IC50 [2]
inactive: viability, T/C (second compound 0.1 µM, first compound 0.00316 µM) 75.5% | viability, T/C (second compound 0.1 µM, first compound 0.01 µM) 60.4% | viability, T/C [6] 62.1% | viability, T/C [7] 53% | viability, T/C [8] 56% | viability, T/C [9] 45.3% | viability, T/C (second compound 0.316 µM, first compound 0.00316 µM) 59.3% | viability, T/C (second compound 0.316 µM, first compound 0.01 µM) 59.7% | viability, T/C [10] 54.3% | viability, T/C [11] 42% | viability, T/C [12] 54.6% | viability, T/C [13] 41.7% | viability, T/C (second compound 1 µM, first compound 0.00316 µM) 48.9% | viability, T/C (second compound 1 µM, first compound 0.01 µM) 40.8% | viability, T/C [14] 47.4% | viability, T/C [15] 48.9% | viability, T/C [16] 41.6% | viability, T/C [17] 42.8% | viability, T/C (second compound 3.16 µM, first compound 0.00316 µM) 50.2% | viability, T/C (second compound 3.16 µM, first compound 0.01 µM) 39.1% | viability, T/C [18] 29.4% | viability, T/C [19] 30.7% | viability, T/C [20] 34.5% | viability, T/C [21] 24.1% | viability, T/C (second compound 10 µM, first compound 0.00316 µM) 85.5% | viability, T/C (second compound 10 µM, first compound 0.01 µM) 81.9% | viability, T/C [22] 67.5% | viability, T/C [23] 56.8% | viability, T/C [24] 45.5% | viability, T/C [25] 53.5%

C#Cc1c(F)ccc2cc(O)cc(-c3ncc4c(N5CC6CCC(C5)N6)nc(OCC56CCCN5CC(F)C6)nc4c3F)c12 (stereo not drawn) + Cc1c(S(C)(=O)=O)c(-c2cc(F)cc(N3CCN(c4ccc(NS(=O)(=O)c5ccc(NC(CCN6CCC(C(=O)OCCCP(=O)(O)O)CC6)CSc6ccccc6)c(S(=O)(=O)C(F)(F)F)c5)cc4)CC3)c2)c(-c2ccc(Cl)cc2)n1C(C)C
2930 nM: IC50 [1]
1450 nM: IC50 [3]
active: viability, T/C (second compound 0.1 µM, first compound 10 µM) 2.44% | viability, T/C (second compound 0.316 µM, first compound 10 µM) 1.38% | viability, T/C (second compound 1 µM, first compound 10 µM) 0.37% | viability, T/C (second compound 3.16 µM, first compound 10 µM) 0.32% | viability, T/C (second compound 10 µM, first compound 10 µM) 2.69%
2750 nM: IC50 [5]
inactive: viability, T/C [6] 70.7% | viability, T/C [7] 69.9% | viability, T/C [8] 64.8% | viability, T/C [9] 67.3% | viability, T/C (second compound 0.1 µM, first compound 3.16 µM) 48.8% | viability, T/C [10] 55.4% | viability, T/C [11] 73.8% | viability, T/C [12] 66.5% | viability, T/C [13] 53.1% | viability, T/C (second compound 0.316 µM, first compound 3.16 µM) 36% | viability, T/C [14] 60.1% | viability, T/C [15] 55.9% | viability, T/C [16] 50.7% | viability, T/C [17] 67.3% | viability, T/C (second compound 1 µM, first compound 3.16 µM) 32% | viability, T/C [18] 53.6% | viability, T/C [19] 45.6% | viability, T/C [20] 45.6% | viability, T/C [21] 36% | viability, T/C (second compound 3.16 µM, first compound 3.16 µM) 33% | viability, T/C [22] 94.9% | viability, T/C [23] 98.8% | viability, T/C [24] 88.1% | viability, T/C [25] 74.5% | viability, T/C (second compound 10 µM, first compound 3.16 µM) 46.9%
< 31.6 nM: IC50 [4]
1410 nM: IC50 [2]

C=C(F)C(=O)N1CCN(c2nc(OCC3CCCN3C)nc3c2CCN(c2cccc4cccc(Cl)c24)C3)CC1CC#N (stereo not drawn) + CCN1C(C(=O)NC23CCC(C(=O)O)(CC2)CC3)C(c2cccc(Cl)c2F)C2(C(=O)Nc3cc(Cl)ccc32)C12CCCCC2
1010 nM: IC50 (curve of first compound, second compound 0.3 µM)
active: viability, T/C (second compound 0.03 µM, first compound 3.16 µM) 7.9% | viability, T/C (second compound 0.03 µM, first compound 10 µM) 0.1% | viability, T/C (second compound 0.0949 µM, first compound 10 µM) 0.11% | viability, T/C (second compound 0.3 µM, first compound 3.16 µM) 10.4% | viability, T/C (second compound 0.3 µM, first compound 10 µM) 0.1% | viability, T/C (second compound 0.949 µM, first compound 3.16 µM) 5.95% | viability, T/C (second compound 0.949 µM, first compound 10 µM) 0.11% | viability, T/C (second compound 3 µM, first compound 3.16 µM) 7.46% | viability, T/C (second compound 3 µM, first compound 10 µM) 0.15%
1100 nM: IC50 (curve of first compound, second compound 0.03 µM)
1580 nM: IC50 (curve of first compound, second compound 3 µM)
inactive: viability, T/C (second compound 0.03 µM, first compound 0.0316 µM) 97.6% | viability, T/C (second compound 0.03 µM, first compound 0.1 µM) 95.3% | viability, T/C (second compound 0.03 µM, first compound 0.316 µM) 103% | viability, T/C (second compound 0.03 µM, first compound 1 µM) 54% | viability, T/C (second compound 0.0949 µM, first compound 0.0316 µM) 98.4% | viability, T/C (second compound 0.0949 µM, first compound 0.1 µM) 98.2% | viability, T/C (second compound 0.0949 µM, first compound 0.316 µM) 85.2% | viability, T/C (second compound 0.0949 µM, first compound 1 µM) 59.8% | viability, T/C (second compound 0.0949 µM, first compound 3.16 µM) 8.82% | viability, T/C (second compound 0.3 µM, first compound 0.0316 µM) 89.2% | viability, T/C (second compound 0.3 µM, first compound 0.1 µM) 104% | viability, T/C (second compound 0.3 µM, first compound 0.316 µM) 105% | viability, T/C (second compound 0.3 µM, first compound 1 µM) 50.5% | viability, T/C (second compound 0.949 µM, first compound 0.0316 µM) 93% | viability, T/C (second compound 0.949 µM, first compound 0.1 µM) 88.3% | viability, T/C (second compound 0.949 µM, first compound 0.316 µM) 78.2% | viability, T/C (second compound 0.949 µM, first compound 1 µM) 63.9% | viability, T/C (second compound 3 µM, first compound 0.0316 µM) 107% | viability, T/C (second compound 3 µM, first compound 0.1 µM) 86.2% | viability, T/C (second compound 3 µM, first compound 0.316 µM) 81.7% | viability, T/C (second compound 3 µM, first compound 1 µM) 78.1%
1200 nM: IC50 (curve of first compound, second compound 0.0949 µM)
1300 nM: IC50 (curve of first compound, second compound 0.949 µM)

CCN1C(C(=O)NC23CCC(C(=O)O)(CC2)CC3)C(c2cccc(Cl)c2F)C2(C(=O)Nc3cc(Cl)ccc32)C12CCCCC2 (stereo not drawn)
> 3000 nM: IC50 (compound alone, run of 09/27/2022) | IC50 (curve of compound)
inactive: viability, T/C (compound 0.00949 µM) 92.7% and 92.5%

Source: PubChem BioAssay AID1963446 (Molecular Pharmacology Branch, DTP, NCI, 2024)
